The values below are quoted from earlier work in patent US11154521B2 (Acer Therapeutics Inc., priority 2016, dated 2021).

Data set [1] deals with cultured human muscle fibers. The following applies: Nogalska et al. 2014.
The conditions of data set [2]: healthy adults.
The test system of a further data set is torsinA. The following applies: Cho et al. PLoS One 2014.

Turning to sodium phenylbutyrate, in data set [1], the “Aβ42 and its oligomers” value is given as “decrease”; the lysosomal activity result is reported as “improve”; the muscle-fiber vacuolization result was “prevent”; the γ-secretase activity entry was “decrease”. The “proinflammatory molecules and reactive oxygen species (ROS)” value with activated glial cells is given as “suppress”. The mean terminal half-life in data set [2] is 48 min.

Regarding `O=C(O)CCCc1ccccc1` [4-phenylbutyrate], the “ER stress and inhibited cAMP response to forskolin induced by torsinA mutation” value in the data set with torsinA is given as “corrected”.
